Test results from paper PMC3303751, “Development of Tyrosine-Based Radiotracer ^99mTc-N4-Tyrosine for Breast Cancer Imaging” (Journal of Biomedicine and Biotechnology, 2012).

Experiments:
[1] = Blood clearance in normal rats; assay type: in vivo; settings: normal female Fischer 344 rats, i.v. 30 μCi
Protocol: All animal work was carried out in the Small Animal Imaging Facility at MD Anderson under a protocol approved by the Institutional Animal Care and Use Committee. For blood clearance analysis, 3 normal female Fischer 344 rats (150 ± 25 g; Harlan Sprague-Dawley, Indianapolis, IN, USA) were intravenously injected with 30 μCi of ^99mTc-N4-Tyrosine. Blood samples (n = 3/rat) were drawn from each rat through the lateral tail vein by microliter pipette (10 μL) at several time points between 5 minutes and 24 hours after injection. The blood samples were measured for radioactivity by gamma counter, and the radioactivity was expressed as a percentage of the injected dose per gram of blood (%ID/g).

[2] = Tissue distribution in normal rats; assay type: in vivo, Fischer 344 rats; settings: for tissue distribution, Blood / tissue distribution, Bone and joint / tissue distribution, Brain / tissue distribution, Heart / tissue distribution, Intestine / tissue distribution, Kidney / tissue distribution, Liver / tissue distribution, Lung / tissue distribution, Muscle / tissue distribution, Pancreas / tissue distribution, Spleen / tissue distribution, Stomach / tissue distribution, Thyroid: i.v.
Protocol: Tissue distribution studies of ^99mTc-N4-Tyrosine were conducted using normal female Fischer 344 rats (150 ± 25 g, n = 9). The rats were divided into 3 groups, and each rat was injected intravenously with 25 ± 0.5 μCi of ^99mTc-N4-Tyrosine. Each group was examined at 1 of 3 time points (0.5, 2, or 4 hours after injection). At each time point, the rats were killed, and the selected tissues were excised, weighed, and measured for radioactivity by gamma counter. For each sample, radioactivity was expressed as mean percentage of the injected dose per gram of tissue wet weight (%ID/g). Counts from a 1/10 diluted sample of the original injection were used as a reference.

^99mTc-O-[3-(1,4,8,11-tetraazabicyclohexadecane)-propyl]-tyrosine [^99mTc-N4-Tyrosine]
plasma half-life of the distribution phase (t1/2α) [1]: 9.31 ± 0.759 min | plasma half-life of the elimination phase (t1/2β) [1]: 90.14 ± 1.901 min | tissue distribution, Blood ([2]; 30 min after injection): 0.88 %ID/g | tissue distribution, Bone and joint ([2]; 30 min after injection): 0.24 %ID/g | tissue distribution, Brain ([2]; 30 min after injection): 0.03 %ID/g | tissue distribution, Heart ([2]; 30 min after injection): 0.21 %ID/g | tissue distribution, Intestine ([2]; 30 min after injection): 0.34 %ID/g | tissue distribution, Kidney ([2]; 30 min after injection): 11.05 %ID/g | tissue distribution, Liver ([2]; 30 min after injection): 1.15 %ID/g | tissue distribution, Lung ([2]; 30 min after injection): 0.50 %ID/g | tissue distribution, Muscle ([2]; 30 min after injection): 0.07 %ID/g | tissue distribution, Pancreas ([2]; 30 min after injection): 0.17 %ID/g | tissue distribution, Spleen ([2]; 30 min after injection): 0.94 %ID/g | tissue distribution, Stomach ([2]; 30 min after injection): 0.20 %ID/g | tissue distribution, Thyroid ([2]; 30 min after injection): 0.34 %ID/g | tissue distribution, Blood ([2]; 120 min after injection): 0.20 %ID/g | tissue distribution, Bone and joint ([2]; 120 min after injection): 0.15 %ID/g | tissue distribution, Brain ([2]; 120 min after injection): 0.02 %ID/g | tissue distribution, Heart ([2]; 120 min after injection): 0.06 %ID/g | tissue distribution, Intestine ([2]; 120 min after injection): 0.13 %ID/g | tissue distribution, Kidney ([2]; 120 min after injection): 12.34 %ID/g | tissue distribution, Liver ([2]; 120 min after injection): 0.70 %ID/g | tissue distribution, Lung ([2]; 120 min after injection): 0.19 %ID/g | tissue distribution, Muscle ([2]; 120 min after injection): 0.03 %ID/g | tissue distribution, Pancreas ([2]; 120 min after injection): 0.07 %ID/g | tissue distribution, Spleen ([2]; 120 min after injection): 0.76 %ID/g | tissue distribution, Stomach ([2]; 120 min after injection): 0.08 %ID/g | tissue distribution, Thyroid ([2]; 120 min after injection): 0.10 %ID/g | tissue distribution, Blood ([2]; 240 min after injection): 0.17 %ID/g | tissue distribution, Bone and joint ([2]; 240 min after injection): 0.12 %ID/g | tissue distribution, Brain ([2]; 240 min after injection): 0.01 %ID/g | tissue distribution, Heart ([2]; 240 min after injection): 0.05 %ID/g | tissue distribution, Intestine ([2]; 240 min after injection): 0.11 %ID/g | tissue distribution, Kidney ([2]; 240 min after injection): 12.40 %ID/g | tissue distribution, Liver ([2]; 240 min after injection): 0.67 %ID/g | tissue distribution, Lung ([2]; 240 min after injection): 0.14 %ID/g | tissue distribution, Muscle ([2]; 240 min after injection): 0.02 %ID/g | tissue distribution, Pancreas ([2]; 240 min after injection): 0.05 %ID/g | tissue distribution, Spleen ([2]; 240 min after injection): 0.63 %ID/g | tissue distribution, Stomach ([2]; 240 min after injection): 0.06 %ID/g | tissue distribution, Thyroid ([2]; 240 min after injection): 0.09 %ID/g | stability in vivo ([2]; inferred from low thyroid and stomach uptake): high stability in vivo
